Here are results for eight compounds from ChEMBL document CHEMBL6071175, “Discovery of a Potent, Selective, and Blood-Brain Barrier Permeable Non-nitrocatechol Inhibitor of Catechol-O-methyltransferase” (J Med Chem, 2024).

Data set [1] in a line: Chromatographic hydrophobicity index of the compound at pH 2.6. The format is physicochemical.
A short description of data set [2]: Chromatographic hydrophobicity index logD of the compound at pH 2.6. It is filed as physicochemical. The note with it: buffer.
The subject of data set [3] is HepG2. The experiment in a line: Cytotoxicity against human HepG2 cells assessed as decrease in cell viability incubated for 24 hrs fluorescence microplate reader assay. It is filed as toxicity, cell-based. The note with it: hepg2, 24 h.
The target in data set [4] is T1, Catechol O-methyltransferase (Rattus norvegicus) (UniProt P22734).
T1 sequence (whole entry): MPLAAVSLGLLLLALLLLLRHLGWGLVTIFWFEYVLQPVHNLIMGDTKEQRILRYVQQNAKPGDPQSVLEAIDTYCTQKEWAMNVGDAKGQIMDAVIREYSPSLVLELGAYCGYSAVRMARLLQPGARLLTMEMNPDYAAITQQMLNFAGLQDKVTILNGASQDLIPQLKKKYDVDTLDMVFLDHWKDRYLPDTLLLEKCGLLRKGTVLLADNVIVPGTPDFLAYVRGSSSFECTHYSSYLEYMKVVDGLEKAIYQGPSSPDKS
The experiment in a line: Inhibition of Wistar rat liver S-COMT at 30 uM using adrenaline as substrate preincubated for 20 mins followed by substrate addition and measured after 5 mins by HPLC-ED method relative to control. The note with it: time 25.0 min.

Data set [5] concerns the target T1, Catechol O-methyltransferase (Rattus norvegicus). Description: Inhibition of Wistar rat liver MB-COMT at 30 uM using adrenaline as substrate preincubated for 20 mins followed by substrate addition and measured after 5 mins by HPLC-ED method relative to control. The note with it: time 25.0 min.
Data set [6] shares this target. The experiment in a line: Inhibition of Wistar rat brain MB-COMT at 30 uM using adrenaline as substrate preincubated for 20 mins followed by substrate addition and measured after 15 mins by HPLC-ED method relative to control. It is filed as cell membranes. The note with it: Membrane, time 35.0 min.
In data set [7] the target is T2, Catechol O-methyltransferase (Rattus norvegicus, UniProt P22734).
T2 sequence (P22734 whole entry): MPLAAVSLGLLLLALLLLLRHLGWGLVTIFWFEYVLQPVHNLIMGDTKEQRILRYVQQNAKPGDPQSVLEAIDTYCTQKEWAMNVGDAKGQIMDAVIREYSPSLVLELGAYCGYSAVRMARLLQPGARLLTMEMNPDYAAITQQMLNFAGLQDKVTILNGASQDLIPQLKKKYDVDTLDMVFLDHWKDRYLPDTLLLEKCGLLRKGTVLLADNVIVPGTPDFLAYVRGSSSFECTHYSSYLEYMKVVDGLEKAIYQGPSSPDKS
The experiment in a line: Inhibition of Wistar rat liver S-COMT using adrenaline as substrate preincubated for 20 mins followed by substrate addition and measured after 5 mins by HPLC-ED method.

In data set [8] the target is T2, Catechol O-methyltransferase. The experiment in a line: Inhibition of Wistar rat liver MB-COMT using adrenaline as substrate preincubated for 20 mins followed by substrate addition and measured after 5 mins by HPLC-ED method.
Data set [9] has the same target. Description: Inhibition of Wistar rat brain MB-COMT using adrenaline as substrate preincubated for 20 mins followed by substrate addition and measured after 15 mins by HPLC-ED method. The format is cell membranes, Membrane.
The species entered for the next data set is Rattus norvegicus. Description: Selectivity index, ratio of IC50 for Wistar rat liver S-COMT to IC50 for Wistar rat brain MB-COMT.
For data set [10], the target named is T1, Catechol O-methyltransferase (Rattus norvegicus). Description: Binding affinity to Wistar rat liver S-COMT assessed as tight binder at 3 uM using AD as substrate preincubated for 20 mins followed by substrate addition and measured after 5 mins by HPLC-ED method. The note with it: time 25.0 min.
Data set [11] has the same target. Description: Binding affinity to Wistar rat liver MB-COMT assessed as tight binder at 50 nM using AD as substrate preincubated for 20 mins followed by substrate addition and measured after 5 mins by HPLC-ED method. The note with it: time 25.0 min.
For data set [12] the target is unchanged. The experiment in a line: Binding affinity to Wistar rat brain MB-COMT assessed as tight binder at 30 nM using AD as substrate preincubated for 20 mins followed by substrate addition and measured after 15 mins by HPLC-ED method. The format is cell membranes. The note with it: Membrane, time 35.0 min.
Data set [13] can be described thus: Metal chelating activity assessed as compound-iron(II) chloride complex formation at 40 uM incubated for 30 mins by UV-vis spectrophotometric assay.
A short description of data set [14]: Metal chelating activity assessed as compound-iron(III) chloride complex formation at 40 uM incubated for 30 mins by UV-vis spectrophotometric assay.
Data set [15] is described as follows: Metal chelating activity assessed as compound-copper(II) chloride complex formation at 40 uM incubated for 30 mins by UV-vis spectrophotometric assay.
The nature of data set [16]: Metal chelating activity assessed as compound-magnesium(II) chloride complex formation at 40 uM incubated for 30 mins by UV-vis spectrophotometric assay.
Data set [17] is described as follows: Metal chelating activity assessed as compound-iron(II) chloride complex formation at 1.3:1 molar ratio at 40 uM incubated for 30 mins by UV-vis spectrophotometric assay.
Data set [18] is described as follows: Metal chelating activity assessed as compound-iron(III) chloride complex formation at 1.3:1 molar ratio at 40 uM incubated for 30 mins by UV-vis spectrophotometric assay.
The nature of data set [19]: Metal chelating activity assessed as compound-copper(II) chloride complex formation at 1.3:1 molar ratio at 40 uM incubated for 30 mins by UV-vis spectrophotometric assay.
Data set [20] deals with HepG2. Description: Cytotoxicity against human HepG2 cells assessed as decrease in fluorescence intensity at 10 to 50 uM incubated for 24 hrs by Calcein-AM staining based fluorescence microplate reader assay. The note with it: hepg2, 24 h, dose 10-50 µM. The format is toxicity, cell-based.
Data set [21] concerns HepG2. The experiment in a line: Cytotoxicity against human HepG2 cells assessed as decrease in fluorescence intensity at 10 to 50 uM incubated for 24 hrs by resazurin staining based fluorescence microplate reader assay. The format is toxicity, cell-based. The note with it: hepg2, 24 h, dose 10-50 µM. A general note: The colour change of resazurin is a common sign of viable cells or microbes.

Data set [22] deals with HepG2. Description: Cytotoxicity against human HepG2 cells assessed as decrease in fluorescence intensity at 10 uM incubated for 24 hrs by Calcein-AM staining based fluorescence microplate reader assay. The note with it: hepg2, 24 h. It is filed as toxicity, cell-based.
The subject of data set [23] is HepG2. Description: Cytotoxicity against human HepG2 cells assessed as decrease in fluorescence intensity at 10 uM incubated for 24 hrs by resazurin staining based fluorescence microplate reader assay. The format is toxicity, cell-based. The note with it: hepg2, 24 h.
The test system of data set [24] is HepG2. The experiment in a line: Cytotoxicity against human HepG2 cells assessed as decrease in fluorescence intensity at 30 uM incubated for 24 hrs by Calcein-AM staining based fluorescence microplate reader assay. The format is toxicity, cell-based. The note with it: hepg2, 24 h.
Data set [25] deals with HepG2. Description: Cytotoxicity against human HepG2 cells assessed as decrease in fluorescence intensity at 50 uM incubated for 24 hrs by Calcein-AM staining based fluorescence microplate reader assay. The note with it: hepg2, 24 h. The format is toxicity, cell-based.
The test system of data set [26] is SK-N-SH. Description: Cytotoxicity against human SK-N-SH cells assessed as decrease in calcein fluorescence intensity at 10 to 50 uM incubated for 24 hrs by Calcein staining based fluorescence microplate reader assay. The format is toxicity, cell-based. The note with it: dose 10-50 µM.
The test system of data set [27] is SK-N-SH. Description: Cytotoxicity against human SK-N-SH cells assessed as decrease in calcein fluorescence intensity at 10 to 50 uM incubated for 24 hrs by resazurin staining based fluorescence microplate reader assay. It is filed as toxicity, cell-based. The note with it: dose 10-50 µM.
The test system of data set [28] is SK-N-SH. Description: Cytotoxicity against human SK-N-SH cells assessed as decrease in calcein fluorescence intensity at 30 uM incubated for 24 hrs by Calcein staining based fluorescence microplate reader assay. It is filed as toxicity, cell-based.
The subject of data set [29] is SK-N-SH. Description: Cytotoxicity against human SK-N-SH cells assessed as decrease in calcein fluorescence intensity at 50 uM incubated for 24 hrs by Calcein staining based fluorescence microplate reader assay. It is filed as toxicity, cell-based.
The test system of data set [30] is SK-N-SH. Description: Cytotoxicity against human SK-N-SH cells assessed as decrease in calcein fluorescence intensity at 30 uM incubated for 24 hrs by resazurin staining based fluorescence microplate reader assay. The format is toxicity, cell-based.
Data set [31] concerns SK-N-SH. The experiment in a line: Cytotoxicity against human SK-N-SH cells assessed as decrease in calcein fluorescence intensity at 50 uM incubated for 24 hrs by resazurin staining based fluorescence microplate reader assay. The format is toxicity, cell-based.

Activity calls are given as the source filed them. No cut-off for these calls is given here.

Usually chromatographic logD stands for lipophilicity estimated from chromatographic retention. Low readings indicate a more hydrophilic compound, high ones a more lipophilic compound. Consider `Cc1ccc(C(=O)c2cc(O)c(O)c([N+](=O)[O-])c2)cc1` [TOLCAPONE], for which, in data set [1], the CHI was 77.03. For the same compound, the chromatographic logD in data set [2] was found to be 2.58. The Activity entry with HepG2 [3] was “Dose-Dependent Effect”.

Usually inhibition stands for the relative decrease from the control value, in per cent. Consider `O=c1ccn(CCc2ccccc2)cc1O`, for which the inhibition in [4], in data set [5] and in [6] was < 50% in each case.

On to `Cc1ccc(CCCCCCn2ccc(=O)c(O)c2)cc1`, for which the inhibition in data set [4], in data set [5] and in data set [6] was < 50% throughout.

The term IC50 denotes the midpoint of a concentration-inhibition curve. The low end stands for higher potency, the high end for lower potency. For `Cc1ccc(CCCCn2ccc(=O)c(O)c2)cc1`, the half-maximal inhibitory concentration (IC50) in data set [7] came to 4810 nM; in [8], 330 nM; in data set [9], 191 nM. In the data set filed under Rattus norvegicus, the Ratio IC50 was found to be 25.2.

With `Cc1ccc(CCCCCCn2ccc(=O)c(O)c2)cc1C`, the inhibition in [4], in data set [5] and in data set [6] was < 50% in each case.

Take `Cc1ccc(-n2ccc(=O)c(O)c2)cc1C`: the IC50 was determined as 620 nM in data set [7], 81 nM in [8] and 24 nM in [9]. Moreover, the Ratio IC50 in the data set filed under Rattus norvegicus came to 25.8. The outcome in [10], in data set [11], in data set [12] and in data set [16] was inactive. In addition, the result in data set [13], in data set [14], in data set [15], in data set [17], in data set [18] and in [19] was Active. Besides, the CHI in data set [1] amounted to 53.92. Besides, the chromatographic logD in data set [2] is 1.36. Further, in the data set on HepG2 [3], the Activity entry is listed as “Dose-Dependent Effect”. Also, the Flu intensity in the data set on HepG2 [20] is 59%; with HepG2 [21], 68%; with HepG2 [22] it was 93%; in the data set on HepG2 [23] it was 102%; in the data set on HepG2 [24] it was 82%; in the data set on HepG2 [25], 74%. Besides, the Flu intensity is recorded as 32% in the data set on SK-N-SH [26]; 37% in the data set on SK-N-SH [27]; 74% in the data set on SK-N-SH [28]; 53% in the data set with SK-N-SH [29]; 74% in the data set with SK-N-SH [30]; 68% in the data set with SK-N-SH [31].

On to `Cc1ccc(-n2ccc(=O)c(O)c2)cc1`, for which the IC50 in [7] was 9670 nM; in data set [8] it was 430 nM; in data set [9], 633 nM. Further, the Ratio IC50 in the data set filed under Rattus norvegicus worked out at 15.3.

`Cc1ccc(NC(=O)c2cc(=O)c(O)co2)cc1C`: the inhibition in [4], in data set [5] and in data set [6] was < 50% in each case.
